In BigSolDB 2.1:

COc1ccc(C(=O)O)c(OC)c1OC
solubility (mole fraction)
Conditions	278.15 K	283.15 K	288.15 K	293.15 K	298.15 K	303.15 K	308.15 K	313.15 K	318.15 K
in 2-butoxyethanol	0.0838	0.0944	0.113	0.127	0.148	0.167	0.185	0.207	0.25
in 2-ethoxyethanol	0.179	0.207	0.238	0.264	0.289	0.318	0.353	0.39	0.431
in 2-methoxyethanol	0.11	0.127	0.154	0.168	0.194	0.213	0.233	0.26	0.283
in ethanol	0.0482	0.0585	0.0733	0.0926	0.116	0.154	0.199	0.27	0.3
in ethyl acetate	0.066	0.0792	0.0992	0.112	0.13	0.174	0.236	0.283	0.301
in ethylene glycol	0.0165	0.0188	0.0227	0.0281	0.036	0.0421	0.0501	0.0635	0.0828
in isopropanol	0.0261	0.0363	0.0496	0.069	0.0801	0.102	0.129	0.158	0.186
in isopropyl acetate	0.0412	0.0495	0.0584	0.0692	0.0778	0.0892	0.0988	0.115	0.137
in n-butyl acetate	0.047	0.0574	0.0673	0.0751	0.0832	0.0991	0.12	0.136	0.168
in n-propanol	0.0312	0.0405	0.0538	0.072	0.082	0.104	0.129	0.161	0.189
in n-propyl acetate	0.0357	0.0454	0.0549	0.0722	0.0829	0.106	0.13	0.162	0.189
in water	0.000331	0.000419	0.000497	0.000553	0.000703	0.000892	0.00109	0.00134	0.00152
